We go through 31 molecules from patent US20100105655A1, “NOVEL COMPOUNDS 515” (ASTRAZENECA AB, priority 2008, published 2010).

T1 sequence (P08069 31-1367): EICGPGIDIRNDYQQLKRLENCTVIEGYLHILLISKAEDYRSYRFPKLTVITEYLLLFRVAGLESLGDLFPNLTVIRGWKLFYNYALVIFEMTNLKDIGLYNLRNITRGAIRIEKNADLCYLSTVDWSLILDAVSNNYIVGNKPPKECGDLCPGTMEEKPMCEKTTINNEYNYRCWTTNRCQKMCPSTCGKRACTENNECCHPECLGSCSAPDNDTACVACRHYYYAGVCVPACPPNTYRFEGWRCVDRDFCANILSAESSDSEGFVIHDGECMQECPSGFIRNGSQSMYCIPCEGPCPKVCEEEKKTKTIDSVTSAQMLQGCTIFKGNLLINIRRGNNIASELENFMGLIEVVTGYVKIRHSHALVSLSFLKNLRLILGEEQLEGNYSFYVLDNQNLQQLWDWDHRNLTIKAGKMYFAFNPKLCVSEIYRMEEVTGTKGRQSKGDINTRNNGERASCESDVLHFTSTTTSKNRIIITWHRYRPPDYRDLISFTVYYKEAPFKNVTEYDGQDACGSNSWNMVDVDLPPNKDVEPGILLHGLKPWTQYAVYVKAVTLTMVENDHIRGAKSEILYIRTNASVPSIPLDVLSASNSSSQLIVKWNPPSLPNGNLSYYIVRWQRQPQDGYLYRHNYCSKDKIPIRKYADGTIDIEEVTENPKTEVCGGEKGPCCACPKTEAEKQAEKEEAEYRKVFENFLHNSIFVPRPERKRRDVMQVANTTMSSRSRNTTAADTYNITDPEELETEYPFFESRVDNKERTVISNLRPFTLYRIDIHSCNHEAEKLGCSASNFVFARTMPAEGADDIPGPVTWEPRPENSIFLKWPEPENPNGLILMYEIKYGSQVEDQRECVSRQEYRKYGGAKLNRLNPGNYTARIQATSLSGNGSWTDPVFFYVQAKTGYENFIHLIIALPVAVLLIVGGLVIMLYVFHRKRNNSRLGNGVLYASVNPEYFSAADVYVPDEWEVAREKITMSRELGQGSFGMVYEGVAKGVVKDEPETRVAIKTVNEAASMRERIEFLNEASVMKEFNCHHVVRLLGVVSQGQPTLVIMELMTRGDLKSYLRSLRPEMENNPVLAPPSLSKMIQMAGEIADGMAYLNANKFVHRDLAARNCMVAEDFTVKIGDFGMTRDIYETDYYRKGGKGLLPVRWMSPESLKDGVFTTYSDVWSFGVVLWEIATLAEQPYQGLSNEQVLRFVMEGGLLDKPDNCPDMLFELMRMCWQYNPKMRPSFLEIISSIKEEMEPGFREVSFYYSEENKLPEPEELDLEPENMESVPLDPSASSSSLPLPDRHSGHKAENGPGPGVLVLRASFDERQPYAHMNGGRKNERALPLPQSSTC

One assay addresses T1, IGFR kinase (Homo sapiens, UniProt P08069).
T1 construct: purchased Millipore
Nature of the assay: Enzyme assay (c), IGFR kinase, Caliper LabChip. The format is biochemical.
Details: not given
`COc1cc(N2CC3CNCC(C2)O3)ccc1Nc1ncc(Cl)c(-c2cnc3c(F)cccn23)n1` [Example 183, 5-chloro-4-(8-fluoroimidazo[1,2-a]pyridin-3-yl)-N-[2-methoxy-4-(9-oxa-3,7-diazabicyclo[3.3.1]nonan-7-yl)phenyl]pyrimidin-2-amine]: the IC50 (in general, the point on the concentration scale where inhibition reaches its midpoint) was found to be 7 nM.

The same assay, now with this note: 30 nM IGFR kinase, 6 uM ATP, 3 uM peptide mix; read-out: IGFR IC50.
For the molecule `COc1cc(C(CO)CO)ccc1Nc1ncc(Cl)c(-c2cnn3ccccc23)n1` [Example 148, 2-[4-[(5-chloro-4-pyrazolo[1,5-a]pyridin-3-yl-pyrimidin-2-yl)amino]-3-methoxy-phenyl]propane-1,3-diol], the IC50 stood at 17 nM.

`COc1cc(N2CC3CNCC(C2)O3)ccc1Nc1ncc(Cl)c(-c2cnn3ccccc23)n1` [Example 149, 5-chloro-N-[2-methoxy-4-(9-oxa-3,7-diazabicyclo[3.3.1]nonan-7-yl)phenyl]-4-pyrazolo[1,5-a]pyridin-3-yl-pyrimidin-2-amine]: the IC50 stood at 7 nM.

On to `COc1cc(N2CC3CN(CCO)CC(C2)O3)ccc1Nc1ncc(Cl)c(-c2cnn3ccccc23)n1` [Example 150, 2-[7-[4-[(5-chloro-4-pyrazolo[1,5-a]pyridin-3-yl-pyrimidin-2-yl)amino]-3-methoxy-phenyl]-9-oxa-3,7-diazabicyclo[3.3.1]nonan-3-yl]ethanol], for which the IC50 turned out to be 5 nM.

Take `COc1ccc(N2CCN(C(=O)CN(C)C)CC2)cc1Nc1ncc(Cl)c(-c2cnn3ccccc23)n1` [Example 152, 1-[4-[3-[(5-chloro-4-pyrazolo[1,5-a]pyridin-3-yl-pyrimidin-2-yl)amino]-4-methoxy-phenyl]piperazin-1-yl]-2-(dimethylamino)ethanone]: the IC50 turned out to be 25 nM.

Consider `COc1cc2c(cc1Nc1ncc(Cl)c(-c3cnn4ccccc34)n1)NCC2` [Example 155, N-(5-chloro-4-pyrazolo[1,5-a]pyridin-3-yl-pyrimidin-2-yl)-5-methoxy-indolin-6-amine], for which the IC50 was determined as 120 nM.

On to `CNCC(=O)N1CCc2cc(OC)c(Nc3ncc(Cl)c(-c4cnn5ccccc45)n3)cc21` [Example 156, 1-[6-[(5-chloro-4-pyrazolo[1,5-a]pyridin-3-yl-pyrimidin-2-yl)amino]-5-methoxy-indolin-1-yl]-2-(methylamino)ethanone], for which the IC50 stood at 4 nM.

Take `COc1cc2c(cc1Nc1ncc(Cl)c(-c3cnn4ccccc34)n1)N(C(=O)CN(C)C)CC2` [Example 157, 1-[6-[(5-chloro-4-pyrazolo[1,5-a]pyridin-3-yl-pyrimidin-2-yl)amino]-5-methoxy-indolin-1-yl]-2-(dimethylamino)ethanone]: the IC50 is 1 nM.

Regarding `COc1cc(N2CCN(C(C)=O)CC2)ccc1Nc1ncc(C)c(-c2cnn3ccccc23)n1` [Example 158, 1-[4-[3-methoxy-4-[(5-methyl-4-pyrazolo[1,5-a]pyridin-3-yl-pyrimidin-2-yl)amino]phenyl]piperazin-1-yl]ethanone], the IC50 came to 15 nM.

Take `CNCC(=O)N1CCN(c2ccc(Nc3ncc(C)c(-c4cnn5ccccc45)n3)c(OC)c2)CC1` [Example 160, 1-[4-[3-methoxy-4-[(5-methyl-4-pyrazolo[1,5-a]pyridin-3-yl-pyrimidin-2-yl)amino]phenyl]piperazin-1-yl]-2-(methylamino)ethanone]: the IC50 is 14 nM.

`COc1cc(N2CCN(CCO)CC2)ccc1Nc1ncc(C)c(-c2cnn3ccccc23)n1` [Example 161, 2-[4-[3-methoxy-4-[(5-methyl-4-pyrazolo[1,5-a]pyridin-3-yl-pyrimidin-2-yl)amino]phenyl]piperazin-1-yl]ethanol]: the IC50 turned out to be 11 nM.

On to `COc1cc(C2CCNCC2)ccc1Nc1ncc(C)c(-c2cnn3ccccc23)n1` [Example 162, N-[2-methoxy-4-(4-piperidyl)phenyl]-5-methyl-4-pyrazolo[1,5-a]pyridin-3-yl-pyrimidin-2-amine], for which the IC50 was 2 nM.

Consider `COc1cc(C2CCN(C(=O)CO)CC2)ccc1Nc1ncc(C)c(-c2cnn3ccccc23)n1` [Example 163, 2-hydroxy-1-[4-[3-methoxy-4-[(5-methyl-4-pyrazolo[1,5-a]pyridin-3-yl-pyrimidin-2-yl)amino]phenyl]-1-piperidyl]ethanone], for which the IC50 is 16 nM.

Take `COc1cc(C2CCN(C(=O)[C@@H](C)O)CC2)ccc1Nc1ncc(C)c(-c2cnn3ccccc23)n1` [Example 164, (2R)-2-hydroxy-1-[4-[3-methoxy-4-[(5-methyl-4-pyrazolo[1,5-a]pyridin-3-yl-pyrimidin-2-yl)amino]phenyl]-1-piperidyl]propan-1-one]: the IC50 came to 15 nM.

Turning to `COc1cc(N2CC3CN(CCO)CC(C2)O3)ccc1Nc1ncc(C)c(-c2cnn3ccccc23)n1` [Example 166, 2-[7-[3-methoxy-4-[(5-methyl-4-pyrazolo[1,5-a]pyridin-3-yl-pyrimidin-2-yl)amino]phenyl]-9-oxa-3,7-diazabicyclo[3.3.1]nonan-3-yl]ethanol], the concentration for half-maximal inhibition (IC50) was 17 nM.

With `CNCC(=O)N1CCN(c2ccc(OC)c(Nc3ncc(C)c(-c4cnn5ccccc45)n3)c2)CC1` [Example 167, 1-[4-[4-methoxy-3-[(5-methyl-4-pyrazolo[1,5-a]pyridin-3-yl-pyrimidin-2-yl)amino]phenyl]piperazin-1-yl]-2-(methylamino)ethanone], the IC50 was determined as 49 nM.

For `COc1cc(N2CCN(C(C)=O)CC2)ccc1Nc1ncc(F)c(-c2cnn3ccccc23)n1` [Example 170, 1-[4-[4-[(5-fluoro-4-pyrazolo[1,5-a]pyridin-3-yl-pyrimidin-2-yl)amino]-3-methoxy-phenyl]piperazin-1-yl]ethanone], the IC50 was 67 nM.

As to `COc1cc(N2CCNCC2)ccc1Nc1ncc(F)c(-c2cnn3ccccc23)n1` [Example 171, 5-fluoro-N-(2-methoxy-4-piperazin-1-yl-phenyl)-4-pyrazolo[1,5-a]pyridin-3-yl-pyrimidin-2-amine], the IC50 was found to be 17 nM.

In the case of `COc1cc(C2CCNCC2)ccc1Nc1ncc(F)c(-c2cnn3ccccc23)n1` [Example 173, 5-fluoro-N-[2-methoxy-4-(4-piperidyl)phenyl]-4-pyrazolo[1,5-a]pyridin-3-yl-pyrimidin-2-amine], the half-inhibitory concentration (IC50) was 10 nM.

`COc1ccc(N2CCNCC2)cc1Nc1ncc(F)c(-c2cnn3ccccc23)n1` [Example 174, 5-fluoro-N-(2-methoxy-5-piperazin-1-yl-phenyl)-4-pyrazolo[1,5-a]pyridin-3-yl-pyrimidin-2-amine]: the IC50 amounted to 63 nM.

Regarding `COc1cc(N2CC3CN(CCO)CC(C2)O3)ccc1Nc1ncc(F)c(-c2cnn3ccccc23)n1` [Example 175, 2-[7-[4-[(5-fluoro-4-pyrazolo[1,5-a]pyridin-3-yl-pyrimidin-2-yl)amino]-3-methoxy-phenyl]-9-oxa-3,7-diazabicyclo[3.3.1]nonan-3-yl]ethanol], the half-maximal inhibitory concentration (IC50) was determined as 14 nM.

As to `COc1cc2c(cc1Nc1ncc(F)c(-c3cnn4ccccc34)n1)N(C(=O)CN(C)C)CC2` [Example 176, 2-(dimethylamino)-1-[6-[(5-fluoro-4-pyrazolo[1,5-a]pyridin-3-yl-pyrimidin-2-yl)amino]-5-methoxy-indolin-1-yl]ethanone], the IC50 stood at 22 nM.

Consider `COc1cc(C2CCN(C(C)=O)CC2)ccc1Nc1ncc(Cl)c(-c2cnc3c(F)cccn23)n1` [Example 177, 1-[4-[4-[[5-chloro-4-(8-fluoroimidazo[1,2-a]pyridin-3-yl)pyrimidin-2-yl]amino]-3-methoxy-phenyl]-1-piperidyl]ethanone], for which the IC50 amounted to 5 nM.

In the case of `COc1cc(N2CCN(C(=O)[C@@H](C)O)CC2)ccc1Nc1ncc(Cl)c(-c2cnc3c(F)cccn23)n1` [Example 178, (2R)-1-[4-[4-[[5-chloro-4-(8-fluoroimidazo[1,2-a]pyridin-3-yl)pyrimidin-2-yl]amino]-3-methoxy-phenyl]piperazin-1-yl]-2-hydroxy-propan-1-one], the IC50 turned out to be 15 nM.

`COc1cc(C2CCN(C(=O)CO)CC2)ccc1Nc1ncc(Cl)c(-c2cnc3c(F)cccn23)n1` [Example 179, 1-[4-[4-[[5-chloro-4-(8-fluoroimidazo[1,2-a]pyridin-3-yl)pyrimidin-2-yl]amino]-3-methoxy-phenyl]-1-piperidyl]-2-hydroxy-ethanone]: the IC50 was 8 nM.

As to `COc1cc(N2CCN(C(=O)CO)CC2)ccc1Nc1ncc(Cl)c(-c2cnc3c(F)cccn23)n1` [Example 180, 1-[4-[4-[[5-chloro-4-(8-fluoroimidazo[1,2-a]pyridin-3-yl)pyrimidin-2-yl]amino]-3-methoxy-phenyl]piperazin-1-yl]-2-hydroxy-ethanone], the IC50 turned out to be 25 nM.

As for `COc1cc(C(CO)CO)ccc1Nc1ncc(Cl)c(-c2cnc3c(F)cccn23)n1` [Example 181, 2-[4-[[5-chloro-4-(8-fluoroimidazo[1,2-a]pyridin-3-yl)pyrimidin-2-yl]amino]-3-methoxy-phenyl]propane-1,3-diol], the IC50 is 21 nM.

Turning to `CNCC(=O)N1CCC(c2ccc(Nc3ncc(Cl)c(-c4cnc5c(F)cccn45)n3)c(OC)c2)CC1` [Example 182, 1-[4-[4-[[5-chloro-4-(8-fluoroimidazo[1,2-a]pyridin-3-yl)pyrimidin-2-yl]amino]-3-methoxy-phenyl]-1-piperidyl]-2-(methylamino)ethanone], the IC50 turned out to be 1 nM.

As to `COc1cc(N2CC3CN(CCO)CC(C2)O3)ccc1Nc1ncc(Cl)c(-c2cnc3c(F)cccn23)n1` [Example 184, 2-[7-[4-[[5-chloro-4-(8-fluoroimidazo[1,2-a]pyridin-3-yl)pyrimidin-2-yl]amino]-3-methoxy-phenyl]-9-oxa-3,7-diazabicyclo[3.3.1]nonan-3-yl]ethanol], the IC50 is 7 nM.

In the case of `COc1cc(N2CCN(C(C)=O)CC2)ccc1Nc1ncc(Cl)c(-c2cnc3cc(CN(C)C)ccn23)n1` [Example 185, 1-[4-[4-[[5-chloro-4-[7-(dimethylaminomethyl)imidazo[1,2-a]pyridin-3-yl]pyrimidin-2-yl]amino]-3-methoxy-phenyl]piperazin-1-yl]ethanone], the IC50 worked out at 170 nM.

Regarding `CNCc1ccn2c(-c3nc(Nc4ccc(N5CCN(C(C)=O)CC5)cc4OC)ncc3Cl)cnc2c1` [Example 186, 1-[4-[4-[[5-chloro-4-[7-(methylaminomethyl)imidazo[1,2-a]pyridin-3-yl]pyrimidin-2-yl]amino]-3-methoxy-phenyl]piperazin-1-yl]ethanone], the IC50 was 36 nM.
